Test [1] deals with 1b (BK) NS5bΔ21 (Hepatitis C virus genotype 1b (isolate BK) (HCV), UniProt P26663). In words: HCV polymerase inhibition assay, genotype 1b. The test is classed as biochemical, HCV genotype 1b (BK). The conditions noted are these: 1b (BK) NS5bΔ21, 33P-GTP incorporation; read-out: 1b polymerase IC50 (range class). On the procedure:
HCV polymerase reactions were carried out using a modified method of Howe et al., Antimicrobial Agents and Chemotherapy 2004 48(12): 4813-4821. Reactions contained a final concentration of, 0.5% DMSO, 50 nM, 1b (BK) NS5bΔ21, 20 mM Tris-HCl pH 7.5, 5 mM MgCl2, 5 mM MnCl2, 3 mM DTT, 0.05% BSA, 0.2 U/μL RNasin, 10 μg/mL Poly(rC) template, GTP (at Km) and 0.05 μCi/μL ^33P-GTP in a total reaction volume of 50 μL. Compounds were tested in a three fold dilution series, for example starting from 50 μM. Reactions were initiated with the addition of GTP and terminated after 1 hour with 50 μL ice cold 0.2 M EDTA. Terminated reactions were transferred to DEAE 96-well filter plates, unincorporated nucleotides washed from the filters and 50 μL scintillation fluid added prior to reading on a scintillation counter. Similarly, a genotype 3a (VRL-69) NS5bΔ21 polymerase enzyme assay was conducted using essentially the same method.
The compound concentration that reduced ^33P-GTP incorporation by 50% (IC50) was calculated using non-linear regression.

The subject of test [2] is genotype 1b (Con 1) subgenomic replicon cell line. The test can be described thus: HCV replicon assay, genotype 1b (Renilla luciferase). The test is classed as cell-based, HCV genotype 1b (Con 1). Conditions: Hepatitis C virus; genotype 1b replicon, 72 hours, luciferase; read-out: genotype 1b EC50 (range class). On the procedure:
A genotype 1b (Con 1) subgenomic replicon cell line based on Blight et al., Science 2000 290: 1972-1974, modified to express a Renilla luciferase reporter gene was used to assess antiviral activity of test compounds. Cell cultures were maintained in a sub-confluent state in DMEM with glutamine, 10% heat-inactivated foetal bovine serum (FBS) and G418 (Geneticin®).
For assay, cells were seeded at a density of 7000 cells/well into 96 well tissue culture trays in culture media lacking G418. Compounds were tested in a three fold dilution series, for example starting from 50 uM. After 72 hours incubation at 37° C. and 5% CO2, Renilla luciferase activity was quantified via the Promega Renilla Luciferase or Renilla-Glo™ Luciferase Assay Systems (Promega corporation. The same method was employed for replicon assays using subgenomic genotype 1a and 2a replicon cell lines with a seeding cell density of 5000 cells/well for the 2a cell lines.
The compound concentration that reduced luciferase activity by 50% (EC50) was calculated using non-linear regression.
(In general: A replicon is a self-replicating genome or part of one, used to study replication in cells.)

Structures are written as SMILES.

1b (BK) NS5bΔ21, sequence (P26663 2420-2989): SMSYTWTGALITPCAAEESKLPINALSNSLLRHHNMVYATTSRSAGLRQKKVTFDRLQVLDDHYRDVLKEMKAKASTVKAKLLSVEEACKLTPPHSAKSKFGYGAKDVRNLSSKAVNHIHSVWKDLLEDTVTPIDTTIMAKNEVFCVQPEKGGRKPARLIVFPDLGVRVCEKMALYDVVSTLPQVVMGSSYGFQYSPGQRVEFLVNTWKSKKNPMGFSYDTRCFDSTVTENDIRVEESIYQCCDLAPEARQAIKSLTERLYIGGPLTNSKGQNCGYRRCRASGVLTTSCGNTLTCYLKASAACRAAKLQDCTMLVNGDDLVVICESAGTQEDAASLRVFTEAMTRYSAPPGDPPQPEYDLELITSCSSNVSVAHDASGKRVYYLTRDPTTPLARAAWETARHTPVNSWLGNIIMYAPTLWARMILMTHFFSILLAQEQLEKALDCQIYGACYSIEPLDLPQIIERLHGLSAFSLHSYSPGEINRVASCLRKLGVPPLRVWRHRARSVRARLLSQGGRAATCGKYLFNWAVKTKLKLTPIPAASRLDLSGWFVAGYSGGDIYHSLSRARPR

What is called IC50 is the concentration needed to halve the response being measured. As for `CCN(c1cc2nn(-c3ccc(OCC(C)C)cc3)c(C(=O)NC)c2cc1C1CC1)S(C)(=O)=O` [Compound 121], the 50% inhibitory concentration (IC50) in test [1] is 1 to 9.99 µM. The EC50 is the midpoint of the concentration-response curve. Consider `CNC(=O)c1c2cc(C3CC3)c(N(CCCNC(=O)c3cnoc3)S(C)(=O)=O)cc2nn1-c1ccc(Br)cc1` [Compound 168], for which, in test [1], the 50% inhibitory concentration (IC50) was below 0.99 µM. In addition, the half-maximal effective concentration (EC50) in test [2] was below 0.99 µM. Turning to `CNC(=O)c1c2cc(C3CC3)c(N(CCCNCc3cccnc3)S(C)(=O)=O)cc2nn1-c1ccc(Br)cc1` [Compound 211], in test [1], the half-maximal inhibitory concentration (IC50) was below 0.99 µM. Also, in test [2], the EC50 was 1 to 9.99 µM. Taken in the same sequence, the figures for `CNC(=O)c1c2cc(C3CC3)c(N(CCCNCc3ccc(OC)cc3)S(C)(=O)=O)cc2nn1-c1ccc(Br)cc1` [Compound 210] were 1 to 9.99 µM and 1 to 9.99 µM. In the same order, the values of `CCN(c1cc2nn(-c3ccc(F)cc3)c(C(=O)NC)c2cc1C1CC1)S(C)(=O)=O` [Compound 138] are below 0.99 µM and below 0.99 µM. For `CNC(=O)c1c2cc(C3CC3)c(N(CC3CCOCC3)S(C)(=O)=O)cc2nn1-c1ccc(Cl)cc1` [Compound 249], the half-inhibitory concentration (IC50) in test [1] was below 0.99 µM. Moreover, in test [2], the concentration giving a half-maximal response (EC50) was below 0.99 µM. `CNC(=O)c1c2cc(C3CC3)c(N(CCCNC(=O)CCN(C)C)S(C)(=O)=O)cc2nn1-c1ccc(Br)cc1` [Compound 185]: in test [1], the half-maximal inhibitory concentration (IC50) was in the range of 1 to 9.99 µM. For the same compound, in test [2], the EC50 fell in the range of 1 to 9.99 µM.

Take `CNC(=O)c1c2cc(C3CC3)c(-c3cncn3C)cc2nn1-c1ccc(F)cc1` [Compound 158]: the half-maximal inhibitory concentration (IC50) in test [1] fell in the range of 10 to 50 µM. Regarding `CNC(=O)c1c2cc(C3CC3)c(-c3ncc(CO)s3)cc2nn1-c1ccc(F)cc1` [Compound 159], the concentration giving a half-maximal response (EC50) in test [2] was in the range of 10 to 50 µM. As to `CNC(=O)c1c2cc(C3CC3)c(N(CCO)S(C)(=O)=O)cc2nn1-c1ccc(Nc2cccc(O)c2)cc1` [Compound 33], the IC50 in test [1] is 10 to 50 µM.

In the case of `CNC(=O)c1c2cc(C3CC3)c(N3CCNS3(=O)=O)cc2nn1-c1ccc(Br)cc1` [Compound 103, 2-(4-Bromophenyl)-5-cyclopropyl-6-(1,1-dioxido-1,2,5-thiadiazolidin-2-yl)-N-methyl-2H-indazole-3-carboxamide], in test [1], the half-maximal inhibitory concentration (IC50) lay in the range of 1 to 9.99 µM. On the same count and under the same terms, the figure for `CNC(=O)c1c2cc(C3CC3)c(N(CCNC(=O)Cc3nn[nH]n3)S(C)(=O)=O)cc2nn1-c1ccc(Nc2ccc(F)cc2)cc1` [Compound 31] is below 0.99 µM.

Consider `CNC(=O)c1c2cc(C3CC3)c([C@@H]3CN(Cc4ccccc4)C[C@H]3C(C)=O)cc2nn1-c1ccc(Br)cc1` (relative stereo) [Compound 80, trans-6-(4-acetyl-1-benzylpyrrolidin-3-yl)-2-(4-bromophenyl)-5-cyclopropyl-N-methyl-2H-indazole-3-carboxamide], for which the concentration giving a half-maximal response (EC50) in test [2] fell in the range of 1 to 9.99 µM. In the case of `CCN(c1cc2nn(-c3ccc(F)cc3)c(C(=O)NC)c2cc1C(C)C)S(C)(=O)=O` [Compound 130], the concentration for a half-maximal effect (EC50) in test [2] lay in the range of 10 to 50 µM.

`CCn1ccnc1-c1cc2nn(-c3ccc(F)cc3)c(C(=O)NC)c2cc1C1CC1` [Compound 84, 5-Cyclopropyl-6-(1-ethyl-1H-imidazol-2-yl)-2-(4-fluorophenyl)-N-methyl-2H-indazole-3-carboxamide]: the EC50 in test [2] was in the range of 10 to 50 µM. As to `CCN(C)S(=O)(=O)c1cc2nn(-c3ccc(F)cc3)c(C(=O)NC)c2cc1C1CC1` [Compound 227], in test [2], the EC50 fell in the range of 10 to 50 µM. For `CCN(c1ccc2c(C(=O)NC)n(-c3ccc(F)cc3)nc2c1)S(C)(=O)=O` [Compound 137], in test [1], the concentration for half-maximal inhibition (IC50) lay in the range of 10 to 50 µM. The same measure, in the same setting: the figure for `CNC(=O)c1c2cc(C3CC3)c(N(CCOC(=O)c3ccccc3C(=O)O)S(C)(=O)=O)cc2nn1-c1ccc(F)cc1` [Compound 15, 2-[(2-{[5-cyclopropyl-2-(4-fluorophenyl)-3-(methylcarbamoyl)-2H-indazol-6-yl](methylsulfonyl)amino}ethoxy)carbonyl]benzoic acid] is 1 to 9.99 µM. As for `CNC(=O)c1c2cc(OC)c(N(CCO)S(C)(=O)=O)cc2nn1-c1ccc(F)cc1` [Compound 12, 2-(4-fluorophenyl)-6-[2-hydroxyethyl(methylsulfonyl)amino]-5-methoxy-N-methyl-indazole-3-carboxamide], in test [2], the concentration for a half-maximal effect (EC50) lay within 10 to 50 µM.

(Values after US8546389B2 (priority 2010, dated 2013).)
